From ChEMBL document CHEMBL4765464, “Discovery of BMS-986144, a Third-Generation, Pan-Genotype NS3/4A Protease Inhibitor for the Treatment of Hepatitis C Virus Infection” (J Med Chem, 2020)
One block for each compound: values may come before it.

Tests used:
[1] = Inhibition of recombinant full length NS3/4A R155K mutant protease in Hepatitis C virus subtype 1a replicon infected in human HuH7 cells preincubated for 3 days followed by substrate addition and measured after 2 hrs by renilla luciferase reporter gene assay; assay type: cell-based; conditions: Huh-7
[2] = Inhibition of recombinant full length NS3/4A protease in Hepatitis C virus subtype 2a replicon infected in human HuH7 cells preincubated for 3 days followed by substrate addition and measured after 2 hrs by renilla luciferase reporter gene assay; assay type: cell-based; conditions: Huh-7
[3] = Inhibition of recombinant full length NS3/4A protease in Hepatitis C virus subtype 1b replicon infected in human HuH7 cells preincubated for 3 days followed by substrate addition and measured after 2 hrs by renilla luciferase reporter gene assay; assay type: cell-based; conditions: Huh-7
[4] = Inhibition of recombinant full length NS3/4A protease in Hepatitis C virus subtype 1a replicon infected in human HuH7 cells preincubated for 3 days followed by substrate addition and measured after 2 hrs by renilla luciferase reporter gene assay; assay type: cell-based; conditions: Huh-7
[5] = Inhibition of recombinant full length NS3/4A D168V mutant protease in Hepatitis C virus subtype 1b replicon infected in human HuH7 cells preincubated for 3 days followed by substrate addition and measured after 2 hrs by renilla luciferase reporter gene assay; assay type: cell-based; conditions: Huh-7
[6] = Inhibition of recombinant full length NS3/4A protease in Hepatitis C virus subtype 3a replicon infected in human HuH7 cells preincubated for 3 days followed by substrate addition and measured after 2 hrs by renilla luciferase reporter gene assay; assay type: cell-based; conditions: Huh-7
[7] = Metabolic stability in human liver microsomes assessed as half-life incubated for 5 to 45 mins in presence of NADPH by LC-MS analysis; assay type: ADME, Microsome; conditions: time 5-45 min
[8] = Inhibition of recombinant full length NS3/4A protease in Hepatitis C virus subtype 3a infected in human HuH7 cells using Ac-Asp-Glu-Asp (EDANS)-Glu-Glu-Abu-(COO) Ala-Ser-Lys (DABCYL)-NH2 as substrate by FRET assay; conditions: Huh-7

SMILES: [2H]C([2H])([2H])Oc1cnc(O[C@@H]2C[C@H]3C(=O)N[C@]4(C(=O)NS(=O)(=O)C5(C)CC5)C[C@H]4/C=C\CC[C@@H](C)C[C@@H](C)[C@H](NC(=O)OC(C)(C)C(F)(F)F)C(=O)N3C2)c2ccccc12
- EC50 [1]: 1.6 nM
- EC50 [2]: 0.5 nM
- EC50 [3]: 0.4 nM
- EC50 [4]: 0.6 nM
- EC50 [5]: 2.3 nM
- EC50 [6]: 4 nM
- half-life [7]: 18 min

SMILES: COc1cnc(O[C@@H]2C[C@H]3C(=O)N[C@]4(C(=O)NS(=O)(=O)C5CC5)C[C@H]4/C=C\CCCC[C@@H](C)[C@H](NC(=O)OC(C)(C)C(F)(F)F)C(=O)N3C2)c2cc(Cl)ccc12
- EC50 [1]: 17.9 nM
- EC50 [2]: 1.7 nM
- EC50 [3]: 0.48 nM
- EC50 [4]: 0.6 nM
- IC50 [8]: 12.8 nM
- EC50 [5]: 6.8 nM
- EC50 [6]: 42.5 nM
- half-life [7]: 30.3 min

- IC50 [8]: 51 nM
- half-life [7]: 6.4 min
SMILES: COc1cnc(O[C@@H]2C[C@H]3C(=O)N[C@]4(C(=O)NS(=O)(=O)C5CC5)C[C@H]4/C=C\CCCCC[C@H](NC(=O)OC(C)(C)C)C(=O)N3C2)c2cc(Cl)ccc12

SMILES: COc1cnc(O[C@@H]2C[C@H]3C(=O)N[C@]4(C(=O)NS(=O)(=O)C5CC5)C[C@H]4/C=C\CC[C@H](C)C[C@@H](C)[C@H](NC(=O)OC(C)(C)C)C(=O)N3C2)c2cc(Cl)ccc12
- EC50 [1]: 700 nM
- EC50 [2]: 19 nM
- EC50 [3]: 4 nM
- EC50 [4]: 5 nM
- IC50 [8]: 50 nM
- EC50 [5]: 25 nM

SMILES: COc1cnc(O[C@@H]2C[C@H]3C(=O)N[C@]4(C(=O)NS(=O)(=O)C5CC5)C[C@H]4/C=C\CC[C@@H](C)C[C@@H](C)[C@H](NC(=O)OC(C)(C)C)C(=O)N3C2)c2cc(Cl)ccc12
- EC50 [1]: 4 nM
- EC50 [2]: 1.2 nM
- EC50 [3]: 0.6 nM
- EC50 [4]: 1.2 nM
- IC50 [8]: 4.4 nM
- EC50 [5]: 1.3 nM
- half-life [7]: 6.7 min

SMILES: COc1cnc(O[C@@H]2C[C@H]3C(=O)N[C@]4(C(=O)NS(=O)(=O)C5CC5)C[C@H]4/C=C\CCCC[C@@H](C)[C@H](NC(=O)OC(C)(C)C(F)(F)F)C(=O)N3C2)c2ccccc12
- EC50 [1]: 11.5 nM
- EC50 [2]: 1.5 nM
- EC50 [3]: 0.3 nM
- EC50 [4]: 0.8 nM
- IC50 [8]: 2.2 nM
- EC50 [5]: 21 nM
- EC50 [6]: 37.3 nM
- half-life [7]: 18.6 min

SMILES: CC[C@@H]1CCCC/C=C\[C@@H]2C[C@@]2(C(=O)NS(=O)(=O)C2CC2)NC(=O)[C@@H]2C[C@@H](Oc3ncc(OC)c4ccc(Cl)cc34)CN2C(=O)[C@H]1NC(=O)OC(C)(C)C(F)(F)F
- EC50 [1]: 45.2 nM
- EC50 [2]: 2.1 nM
- EC50 [3]: 0.47 nM
- EC50 [4]: 0.84 nM
- IC50 [8]: 29.5 nM
- EC50 [5]: 4.8 nM
- half-life [7]: 48 min

SMILES: COc1cnc(O[C@@H]2C[C@H]3C(=O)N[C@]4(C(=O)NS(=O)(=O)C5CC5)C[C@H]4/C=C\CCCC[C@@H](C)[C@H](NC(=O)OC(C)(C)C)C(=O)N3C2)c2cc(Cl)ccc12
- EC50 [1]: 10.7 nM
- EC50 [2]: 1.1 nM
- EC50 [3]: 0.25 nM
- EC50 [4]: 0.9 nM
- IC50 [8]: 11 nM
- EC50 [5]: 1.9 nM
- EC50 [6]: 75.5 nM
- half-life [7]: 11.5 min

SMILES: C[C@@H]1CC/C=C\[C@@H]2C[C@@]2(C(=O)NS(=O)(=O)C2CC2)NC(=O)[C@@H]2C[C@@H](Oc3nccc4ccc(F)cc34)CN2C(=O)[C@@H](NC(=O)OC(C)(C)C(F)(F)F)[C@H](C)C1
- EC50 [1]: 21 nM
- EC50 [2]: 3 nM
- EC50 [3]: 0.3 nM
- EC50 [4]: 1 nM
- IC50 [8]: 20 nM
- EC50 [6]: 196 nM
- half-life [7]: 10 min

SMILES: CC[C@@H]1C[C@H](C)CC/C=C\[C@@H]2C[C@@]2(C(=O)NS(=O)(=O)C2CC2)NC(=O)[C@@H]2C[C@@H](Oc3ncc(OC)c4ccccc34)CN2C(=O)[C@H]1NC(=O)OC(C)(C)C
- EC50 [1]: 12.6 nM
- EC50 [2]: 5.1 nM
- EC50 [3]: 1.5 nM
- EC50 [4]: 2.2 nM
- IC50 [8]: 0.16 nM
- EC50 [5]: 18 nM
- half-life [7]: 8.6 min
